From US7915420B2, “Aryl piperidine amides” (Janssen Pharmaceutica NV, priority 2003, dated 2011) come the findings set out here.

Molecules are shown by their SMILES.

The assay addresses T1, human glycine transporter-2 (GlyT2) (Homo sapiens, UniProt Q9Y345).
T1 construct: The entire coding region of the human GlyT2 cDNA was cloned into the mammalian expression vector pCINeo; expressed in transfected cells; host or cells: Cos-7 cells (African green monkey kidney), stably transfected, vector pCINeo, G418 selection
T1 sequence (Q9Y345 1-797): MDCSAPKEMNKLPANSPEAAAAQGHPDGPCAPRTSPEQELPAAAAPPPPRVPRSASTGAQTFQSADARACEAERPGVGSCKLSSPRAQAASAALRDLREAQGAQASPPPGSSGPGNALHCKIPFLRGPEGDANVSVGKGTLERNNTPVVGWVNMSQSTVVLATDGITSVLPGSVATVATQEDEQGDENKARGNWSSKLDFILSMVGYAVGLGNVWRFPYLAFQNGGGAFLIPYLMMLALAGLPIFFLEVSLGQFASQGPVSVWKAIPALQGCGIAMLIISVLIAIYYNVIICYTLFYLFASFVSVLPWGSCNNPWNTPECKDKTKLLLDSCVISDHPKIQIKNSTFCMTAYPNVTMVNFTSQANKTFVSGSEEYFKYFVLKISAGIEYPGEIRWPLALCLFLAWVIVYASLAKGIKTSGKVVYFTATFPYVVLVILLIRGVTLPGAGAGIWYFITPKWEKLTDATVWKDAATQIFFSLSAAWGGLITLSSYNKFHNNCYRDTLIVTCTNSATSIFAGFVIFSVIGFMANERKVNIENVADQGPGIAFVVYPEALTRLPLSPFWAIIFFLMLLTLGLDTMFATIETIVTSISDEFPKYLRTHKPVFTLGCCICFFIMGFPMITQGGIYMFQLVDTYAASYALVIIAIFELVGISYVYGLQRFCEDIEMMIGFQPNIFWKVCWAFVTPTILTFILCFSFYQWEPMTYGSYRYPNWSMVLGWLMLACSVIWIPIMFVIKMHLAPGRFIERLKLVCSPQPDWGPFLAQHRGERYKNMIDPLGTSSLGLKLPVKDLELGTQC
Put plainly: GlyT2 inhibitory activity: inhibition of [14C]-glycine uptake in COS-7 cells transfected with human GlyT2. The format is cell-based. The following applies: Cos-7 cells stably transfected with human GlyT2; 20 μM 14C-glycine, 2 h at 37° C. The method, then: GlyT2 antagonist activity of representative compounds of the invention was determined in accordance with the assay described in the Examples and by measuring the ability of compounds to inhibit the uptake of [^14C]-glycine in COS-7 cells transfected with the human glycine transporter-2 (GlyT2). The GlyT2 antagonist activities of these representative compounds are set forth hereinafter in Table 1.
Cos-7 cells (African green monkey, kidney) from American Type Culture Collection were grown in DMEM supplemented with 10% fetal bovine serum. The entire coding region of the human GlyT2 cDNA was cloned into the mammalian expression vector pCINeo, and then stably transfected into Cos-7 cells. Transfection was performed essentially as described by T. W. Lovenberg et al. (Mol. Pharmacol. 1999, 55:1101-1107). Cells are grown to 70-80% confluence, removed from the plate with trypsin, and pelleted in a clinical centrifuge. The pellet is resuspended in 400 μL complete medium and transferred to an electroporation cuvette with a 0.4 cm gap between the electrodes (Bio-Rad, 165-2088). One microgram of supercoiled GlyT2 cDNA is added to the cells, and the suspension is mixed. The voltage for the electroporation is set at 0.25 kV, and the capacitance is set at 960 μF. After electroporation, the cuvette contents are diluted to 10 mL with complete medium, and 0.5 mL, 1.0 mL, 2.0 mL and remainder (−6.5 mL) portions are plated onto four 10-cm dishes. The cells are incubated 24 h before adding 600 μg/mL G418. Colonies that survive selection are isolated and tested for GlyT2 expression.
The day before the assay, the GlyT2 expressing cells were plated into 96-well scintillating microplates (Amersham, RPNQ 0160) at a density of approximately 20,000 cells per well. Cells were grown overnight at 37° C. in 5% CO2 and then washed once with 37° C. HEPES buffered saline (HBS: 150 mM NaCl, 20 mM HEPES, 1 mM CaCl2, 10 mM glucose, 5 mM KCl, 1 mM MgCl2; pH 7.4). Eighty microliters of 37° C. HBS was subsequently added to each well. Test solutions of GlyT2 inhibitors were prepared in HBS from DMSO stock solutions, and 5 μL of test solution was added to each test well. Total transport and non-specific background were determined by adding 5 μL HBS or 5 μL 2 M glycine, respectively, to the appropriate control wells. Plates were then left at room temperature for 5 min before the addition of 20 μL of 100 μM ^14C-glycine (NEN, NEC 048H) to each well for a final concentration of 20 μM. Plates were incubated for 2 h at 37° C. with 5% CO2. After 2 h the reaction mixtures were removed by aspiration, and the plates were washed once with ice-cold HBS. Plates were sealed with TopSeal (Packard, 6005185) and counted on a Packard TopCount® scintillation counter.
`CC(C)Oc1ccccc1NCCNCc1cccc(C(=O)N2CCCCC2)c1` [Example 1, (3-{[2-(2-Isopropoxy-phenylamino)-ethylamino]-methyl}-phenyl)-piperidin-1-yl-methanone]: the IC50 worked out at 0.4 µM.

The molecule `CC(C)Oc1ccccc1NCCCNCc1cccc(C(=O)N2CCCCC2)c1` [Example 2, (3-{[3-(2-Isopropoxy-phenylamino)-propylamino]-methyl}-phenyl)-piperidin-1-yl-methanone] came in with an IC50 of 4 µM.

Molecule `O=C(c1cccc(CNCCNc2ccccc2)c1)N1CCCCC1` [Example 3, {3-[(2-Phenylamino-ethylamino)-methyl]-phenyl}-piperidin-1-yl-methanone] displayed an IC50 greater than 10 µM.

Molecule `O=C(c1cccc(CNCCNc2ccccc2O)c1)N1CCCCC1` [Example 4, (3-{[2-(2-Hydroxy-phenylamino)-ethylamino]-methyl}-phenyl)-piperidin-1-yl-methanone] gave an IC50 of 20 µM.

For the molecule `COc1ccccc1NCCNCc1cccc(C(=O)N2CCCCC2)c1` [Example 5, (3-{[2-(2-Methoxy-phenylamino)-ethylamino]-methyl}-phenyl)-piperidin-1-yl-methanone], the IC50 is 2.5 µM.

`CCC(CC)Oc1ccccc1NCCNCc1cccc(C(=O)N2CCCCC2)c1` [Example 6, [3-({2-[2-(1-Ethyl-propoxy)-phenylamino]-ethylamino}-methyl)-phenyl]-piperidin-1-yl-methanone] displayed an IC50 of 3 µM.

Take `O=C(c1cccc(CNCCNc2ccccc2OC2CCCC2)c1)N1CCCCC1` [Example 7, (3-{[2-(2-Cyclopentyloxy-phenylamino)-ethylamino]-methyl}-phenyl)-piperidin-1-yl-methanone]: it took 1.2 µM to reach half-maximal inhibition (IC50). This IC50 is about 2.5-fold lower than that of the molecule before.

The molecule `O=C(c1cccc(CNCCNc2ccccc2Oc2ccccc2)c1)N1CCCCC1` [Example 8, (3-{[2-(2-Phenoxy-phenylamino)-ethylamino]-methyl}-phenyl)-piperidin-1-yl-methanone] registered an IC50 of 3 µM.

Take `COc1cccc(NCCNCc2cccc(C(=O)N3CCCCC3)c2)c1` [Example 9, (3-{[2-(3-Methoxy-phenylamino)-ethylamino]-methyl}-phenyl)-piperidin-1-yl-methanone]: the IC50 came to 0.8 µM.

In turn, `CC(C)Oc1cccc(NCCNCc2cccc(C(=O)N3CCCCC3)c2)c1` [Example 10, (3-{[2-(3-Isopropoxy-phenylamino)-ethylamino]-methyl}-phenyl)-piperidin-1-yl-methanone] gave an IC50 of 1 µM.

In the case of `O=C(c1cccc(CNCCNc2ccccc2[N+](=O)[O-])c1)N1CCCCC1` [Example 11, (3-{[2-(2-Nitro-phenylamino)-ethylamino]-methyl}-phenyl)-piperidin-1-yl-methanone], half-maximal inhibition (IC50) was put at 5 µM.

For `Nc1ccccc1NCCNCc1cccc(C(=O)N2CCCCC2)c1` [Example 12, (3-{[2-(2-Amino-phenylamino)-ethylamino]-methyl}-phenyl)-piperidin-1-yl-methanone], the IC50 was greater than 10 µM.

Turning to `CC(C)Nc1ccccc1NCCNCc1cccc(C(=O)N2CCCCC2)c1` [Example 13, (3-{[2-(2-Isopropylamino-phenylamino)-ethylamino]-methyl}-phenyl)-piperidin-1-yl-methanone], half-maximal inhibition (IC50) required 0.55 µM. This lies in the sub-micromolar range.

`CS(=O)(=O)Nc1ccccc1NCCNCc1cccc(C(=O)N2CCCCC2)c1` [Example 14, N-(2-{2-[3-(Piperidine-1-carbonyl)-benzylamino]-ethylamino}-phenyl)methanesulfonamide] had an IC50 of 3.1 µM. Compared with the last molecule, the IC50 is about 5.6-fold higher.

Take `O=C(Nc1ccccc1)Nc1ccccc1NCCNCc1cccc(C(=O)N2CCCCC2)c1` [Example 15, 1-Phenyl-3-(2-{2-[3-(piperidine-1-carbonyl)-benzylamino]-ethylamino}-phenyl)-urea]: the IC50 is greater than 10 µM.

Molecule `O=C(NCc1ccccc1)Nc1ccccc1NCCNCc1cccc(C(=O)N2CCCCC2)c1` [Example 16, 1-Benzyl-3-(2-{2-[3-(piperidine-1-carbonyl)-benzylamino]-ethylamino}-phenyl)-urea] gave an IC50 of 3.1 µM.

Regarding `O=C(c1cccc(CNCCNc2ccccc2Br)c1)N1CCCCC1` [Example 17, (3-{[2-(2-Bromo-phenylamino)-ethylamino]-methyl}-phenyl)-piperidin-1-yl-methanone], the midpoint of inhibition, the IC50, lay at 1 µM.

`O=C(c1cccc(CNCCNc2cccc(Br)c2)c1)N1CCCCC1` [Example 18, (3-{[2-(3-Bromo-phenylamino)-ethylamino]-methyl}-phenyl)-piperidin-1-yl-methanone] showed an IC50 of 3.1 µM.

Molecule `O=C(c1cccc(CNCCNc2ccccc2Cl)c1)N1CCCCC1` [Example 19, (3-{[2-(2-Chloro-phenylamino)-ethylamino]-methyl}-phenyl)-piperidin-1-yl-methanone] showed an IC50 of 1.2 µM.

In turn, `O=C(c1cccc(CNCCNc2cccc(Cl)c2)c1)N1CCCCC1` [Example 20, (3-{[2-(3-Chloro-phenylamino)-ethylamino]-methyl}-phenyl)-piperidin-1-yl-methanone] showed an IC50 of 3.1 µM.

Consider `CC(C)c1ccccc1NCCNCc1cccc(C(=O)N2CCCCC2)c1` [Example 21, (3-{[2-(2-Isopropyl-phenylamino)-ethylamino]-methyl}-phenyl)-piperidin-1-yl-methanone], for which the IC50 worked out at 2.5 µM. The IC50 values of the last two molecules are within 1.5-fold of each other.

`COc1ccccc1-c1ccccc1NCCNCc1cccc(C(=O)N2CCCCC2)c1` [Example 22, (3-{[2-(2′-Methoxy-biphenyl-2-ylamino)-ethylamino]-methyl}-phenyl)-piperidin-1-yl-methanone] gave an IC50 greater than 10 µM.

`O=C(c1cccc(CNCCNc2ccccc2-c2ccsc2)c1)N1CCCCC1` [Example 23, Piperidin-1-yl-(3-{[2-(2-thiophen-3-yl-phenylamino)-ethylamino]-methyl}-phenyl)-methanone]: half-maximal inhibition (IC50) required 0.955 µM.

`CC(C)Oc1ccccc1OCCNCc1cccc(C(=O)N2CCCCC2)c1` [Example 24, (3-{[2-(2-Isopropoxy-phenoxy)-ethylamino]-methyl}-phenyl)-piperidin-1-yl-methanone] had an IC50 of 0.4 µM.

`CC(C)Oc1ccccc1OCCCNCc1cccc(C(=O)N2CCCCC2)c1` [Example 25, (3-{[3-(2-Isopropoxy-phenoxy)-propylamino]-methyl}-phenyl)-piperidin-1-yl-methanone]: the IC50 was 0.4 µM.

`CC(C)Oc1cccc(OCCNCc2cccc(C(=O)N3CCCCC3)c2)c1` [Example 26, (3-{[2-(3-Isopropoxy-phenoxy)-ethylamino]-methyl}-phenyl)-piperidin-1-yl-methanone] returned an IC50 of 7.5 µM.

Turning to `CC(C)Oc1ccccc1NCCN(C)Cc1cccc(C(=O)N2CCCCC2)c1` [Example 27, [3-({[2-(2-Isopropoxy-phenylamino)-ethyl]-methyl-amino}-methyl)-phenyl]-piperidinyl-methanone], half-maximal inhibition (IC50) required 11 µM.

By IC50 is commonly meant the concentration that inhibits the measured activity by half. Higher therefore signals a need for much substance.
